In US8074906B2, “Process for milling and preparing powders and compositions produced thereby” (Nanotherapeutics, Inc., priority 2005, dated 2011) one finds particle size, moisture uptake and bioavailability data, which are given here for three molecules.

As a reminder, the bioavailability is dose-corrected exposure relative to a reference, in per cent.

Series [1] is described as follows: particle size by Coulter DELSA 440. Format: physicochemical. The source says:
Oxcarbazepine, an antiepileptic drug marketed as Trileptal® by Novartis, is a white crystalline powder practically insoluble in water. Oxcarbazepine (100%) was milled in 1 kg batches according to the method described in EXAMPLE 1.
[…]

Series [2] in a line: moisture uptake (weight change) at room temperature and humidity. Format: physicochemical. To be noted: lyophilized simple salt, 24 hours. On the procedure: Initial Zn-DTPA simple salt solutions were prepared and lyophilized, producing a hygroscopic mixture not stable at room temperature and humidity (>10% moisture uptake in 24 hours). Zn-DTPA (trisodium zinc diethylenetriaminepentaacetate) were then mixed with (1) hydroxyl-propyl-methylcellulose (HPMC, K100M, Dow), (2) lactose (USP, Hawkins), and (3) silica dioxide (Sipernat 50S, Degussa) and dried using lyophilization. Preparation procedures include (A) mixing ingredients (75 and 90% Zn-DTPA, 1 g total each) into 10 ml DI water and adjusting pH with NaOH, (B) freezing at −20 C, (C) lyophilizing overnight (shelves at room temp), and (D) measuring the moisture uptake (weight change) at room temperature (20-25° C.) and humidity (40-55%) at 1 month.

Series [3] in a line: in vivo pharmacokinetics of taurine formulations in rats. Particulars: rat, oral, read-out: bioavailability (BA).

With `NC(=O)N1c2ccccc2CC(=O)c2ccccc21` [Oxcarbazepine], the particle size in series [1] (Pass 1) is recorded as 2250 nm; in series [1] (Pass 2), 524 nm; in series [1] (Pass 3), 400 nm; in series [1] (Pass 4) it was 264 nm.

In the case of `O=C([O-])CN(CCN(CC(=O)[O-])CC(=O)[O-])CCN(CC(=O)[O-])CC(=O)[O-].[Na+].[Na+].[Na+].[Zn+2]` [Zn-DTPA, trisodium zinc diethylenetriaminepentaacetate], the moisture uptake in series [2] is more than 10%.

For `NCCS(=O)(=O)O` [unformulated taurine, Taurine], the bioavailability in series [3] is 18%.
